Measurements reported in ChEMBL document CHEMBL4804286, “3-amino-4-(4-(4 (dimethylcarbamoyl) phenyl)-1,4-diazepan-1-yl) thieno [2,3-b] pyridine-2-carboxamide for use in cancer therapy and formulations comprising the same” (2020).
Several values for one entry are separate records, joined by “and”; a condition that tells them apart may be missing. Identical values can stand only once. Activity calls are given as the source filed them. No cut-off for these calls is given here.

How the values were obtained:
[1] = target: AP2-associated protein kinase 1 (Homo sapiens) (UniProt Q2M2I8); assay: Inhibition of human AAK1 assessed as percent of control at 2000 nM by KINOMEscan assay relative to control; set-up: scale not given: the % may be the effect or the level left
[2] = target: Ankyrin repeat and protein kinase domain-containing protein 1 (Homo sapiens) (UniProt Q8NFD2); assay: Inhibition of human ANKK1 assessed as percent of control at 2000 nM by KINOMEscan assay relative to control; set-up: scale not given: the % may be the effect or the level left
[3] = target: Calcium/calmodulin-dependent protein kinase type II subunit alpha (Homo sapiens) (UniProt Q9UQM7); assay: Inhibition of human CAMK2A assessed as percent of control at 2000 nM by KINOMEscan assay relative to control; set-up: scale not given: the % may be the effect or the level left
[4] = target: Calcium/calmodulin-dependent protein kinase type II subunit beta (Homo sapiens) (UniProt Q13554); assay: Inhibition of human CAMK2B assessed as percent of control at 2000 nM by KINOMEscan assay relative to control; set-up: scale not given: the % may be the effect or the level left
[5] = target: Cyclin-dependent kinase 5 (Homo sapiens) (UniProt Q00535); assay: Inhibition of human CDK5 assessed as percent of control at 2000 nM by KINOMEscan assay relative to control; set-up: scale not given: the % may be the effect or the level left
[6] = target: Dual specificity protein kinase CLK4 (Homo sapiens) (UniProt Q9HAZ1); assay: Inhibition of human CLK4 assessed as percent of control at 2000 nM by KINOMEscan assay relative to control; set-up: scale not given: the % may be the effect or the level left
[7] = target: Serine/threonine-protein kinase 17A (Homo sapiens) (UniProt Q9UEE5); assay: Inhibition of human DRAK1 assessed as percent of control at 2000 nM by KINOMEscan assay relative to control; set-up: scale not given: the % may be the effect or the level left
[8] = target: Ephrin type-B receptor 4 (Homo sapiens) (UniProt P54760); assay: Inhibition of human EPHB4 assessed as percent of control at 2000 nM by KINOMEscan assay relative to control; set-up: scale not given: the % may be the effect or the level left
[9] = target: Serine/threonine-protein kinase/endoribonuclease IRE1 (Homo sapiens) (UniProt O75460); assay: Inhibition of human ERN1 assessed as percent of control at 2000 nM by KINOMEscan assay relative to control; set-up: scale not given: the % may be the effect or the level left
[10] = system: Receptor-type tyrosine-protein kinase FLT3 (Homo sapiens), P36888 [UNDEFINED MUTATION]; assay: Inhibition of human FLT3 ITD/F691L double mutant assessed as percent of control at 2000 nM by KINOMEscan assay relative to control; set-up: scale not given: the % may be the effect or the level left
[11] = target: Insulin receptor-related protein (Homo sapiens) (UniProt P14616); assay: Inhibition of human INSRR assessed as percent of control at 2000 nM by KINOMEscan assay relative to control; set-up: scale not given: the % may be the effect or the level left
[12] = system: Mast/stem cell growth factor receptor Kit (Homo sapiens), P10721 [D816H]; assay: Inhibition of human KIT D816H mutant assessed as percent of control at 2000 nM by KINOMEscan assay relative to control; set-up: scale not given: the % may be the effect or the level left
[13] = system: Mast/stem cell growth factor receptor Kit (Homo sapiens), P10721 [L576P]; assay: Inhibition of human KIT L576P mutant assessed as percent of control at 2000 nM by KINOMEscan assay relative to control; set-up: scale not given: the % may be the effect or the level left
[14] = target: LIM domain kinase 1 (Homo sapiens) (UniProt P53667); assay: Inhibition of human LIMK1 assessed as percent of control at 2000 nM by KINOMEscan assay relative to control; set-up: scale not given: the % may be the effect or the level left
[15] = target: Dual specificity mitogen-activated protein kinase kinase 3 (Homo sapiens) (UniProt P46734); assay: Inhibition of human MEK3 assessed as percent of control at 2000 nM by KINOMEscan assay relative to control; set-up: scale not given: the % may be the effect or the level left
[16] = target: Myosin light chain kinase family member 4 (Homo sapiens) (UniProt Q86YV6); assay: Inhibition of human MYLK4 assessed as percent of control at 2000 nM by KINOMEscan assay relative to control; set-up: scale not given: the % may be the effect or the level left
[17] = target: Serine/threonine-protein kinase 38 (Homo sapiens) (UniProt Q15208); assay: Inhibition of human NDR1 assessed as percent of control at 2000 nM by KINOMEscan assay relative to control; set-up: scale not given: the % may be the effect or the level left
[18] = target: Serine/threonine-protein kinase NLK (Homo sapiens) (UniProt Q9UBE8); assay: Inhibition of human NLK assessed as percent of control at 2000 nM by KINOMEscan assay relative to control; set-up: scale not given: the % may be the effect or the level left
[19] = target: Mitogen-activated protein kinase 12 (Homo sapiens) (UniProt P53778); assay: Inhibition of human p38-gamma assessed as percent of control at 2000 nM by KINOMEscan assay relative to control; set-up: scale not given: the % may be the effect or the level left
[20] = target: Platelet-derived growth factor receptor beta (Homo sapiens) (UniProt P09619); assay: Inhibition of human PDGFRB assessed as percent of control at 2000 nM by KINOMEscan assay relative to control; set-up: scale not given: the % may be the effect or the level left
[21] = target: Cyclin-dependent kinase 14 (Homo sapiens) (UniProt O94921); assay: Inhibition of human PFTK1 assessed as percent of control at 2000 nM by KINOMEscan assay relative to control; set-up: scale not given: the % may be the effect or the level left
[22] = system: Phosphatidylinositol 4,5-bisphosphate 3-kinase catalytic subunit alpha isoform (Homo sapiens), P42336 [I800L]; assay: Inhibition of human PIK3CA I800L mutant assessed as percent of control at 2000 nM by KINOMEscan assay relative to control; set-up: scale not given: the % may be the effect or the level left
[23] = target: Proto-oncogene tyrosine-protein kinase receptor Ret (Homo sapiens) (UniProt P07949); assay: Inhibition of human RET assessed as percent of control at 2000 nM by KINOMEscan assay relative to control; set-up: scale not given: the % may be the effect or the level left
[24] = target: Ribosomal protein S6 kinase alpha-1 (Homo sapiens) (UniProt Q15418); assay: Inhibition of human C-terminal RSK1 kinase domain 2 assessed as percent of control at 2000 nM by KINOMEscan assay relative to control; set-up: scale not given: the % may be the effect or the level left
[25] = target: Ribosomal protein S6 kinase alpha-3 (Homo sapiens) (UniProt P51812); assay: Inhibition of human C-terminal RSK2 kinase domain 2 assessed as percent of control at 2000 nM by KINOMEscan assay relative to control; set-up: scale not given: the % may be the effect or the level left
[26] = target: Serine/threonine-protein kinase SBK1 (Homo sapiens) (UniProt Q52WX2); assay: Inhibition of human SBK1 assessed as percent of control at 2000 nM by KINOMEscan assay relative to control; set-up: scale not given: the % may be the effect or the level left
[27] = target: STE20-like serine/threonine-protein kinase (Homo sapiens) (UniProt Q9H2G2); assay: Inhibition of human SLK assessed as percent of control at 2000 nM by KINOMEscan assay relative to control; set-up: scale not given: the % may be the effect or the level left
[28] = target: Dual specificity protein kinase TTK (Homo sapiens) (UniProt P33981); assay: Inhibition of human TTK assessed as percent of control at 2000 nM by KINOMEscan assay relative to control; set-up: scale not given: the % may be the effect or the level left
[29] = target: Serine/threonine-protein kinase ULK1 (Homo sapiens) (UniProt O75385); assay: Inhibition of human ULK1 assessed as percent of control at 2000 nM by KINOMEscan assay relative to control; set-up: scale not given: the % may be the effect or the level left
CWR22R = assay: Antitumor activity against human 22Rv1 cells expressing AR-V7 xenografted in male nude mouse assessed as suppression of tumor growth at 50 mg/kg, administered once a day for 40 days; type: functional, organism-based
4T1 = assay: Antitumor activity against murine 4T1 cells xenografted in mouse assessed as suppression of tumor volume at 25 mg/kg, po administered twice a day; type: functional, organism-based

Chain of Serine/threonine-protein kinase NLK (Homo sapiens) (Q9UBE8 whole entry): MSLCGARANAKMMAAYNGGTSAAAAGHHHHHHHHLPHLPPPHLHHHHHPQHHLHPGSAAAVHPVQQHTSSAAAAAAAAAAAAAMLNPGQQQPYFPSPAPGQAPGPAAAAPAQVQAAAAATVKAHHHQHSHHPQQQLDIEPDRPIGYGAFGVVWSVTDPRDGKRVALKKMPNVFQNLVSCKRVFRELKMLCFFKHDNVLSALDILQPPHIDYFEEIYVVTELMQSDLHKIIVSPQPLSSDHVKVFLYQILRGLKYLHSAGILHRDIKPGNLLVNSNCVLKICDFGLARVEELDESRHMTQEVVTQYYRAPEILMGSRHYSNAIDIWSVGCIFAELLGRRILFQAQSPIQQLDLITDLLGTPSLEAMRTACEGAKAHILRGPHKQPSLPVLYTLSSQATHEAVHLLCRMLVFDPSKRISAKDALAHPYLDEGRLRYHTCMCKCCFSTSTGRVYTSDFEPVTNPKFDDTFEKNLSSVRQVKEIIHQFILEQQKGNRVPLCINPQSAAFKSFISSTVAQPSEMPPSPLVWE
Chain of Mitogen-activated protein kinase 12 (Homo sapiens) (P53778 whole entry): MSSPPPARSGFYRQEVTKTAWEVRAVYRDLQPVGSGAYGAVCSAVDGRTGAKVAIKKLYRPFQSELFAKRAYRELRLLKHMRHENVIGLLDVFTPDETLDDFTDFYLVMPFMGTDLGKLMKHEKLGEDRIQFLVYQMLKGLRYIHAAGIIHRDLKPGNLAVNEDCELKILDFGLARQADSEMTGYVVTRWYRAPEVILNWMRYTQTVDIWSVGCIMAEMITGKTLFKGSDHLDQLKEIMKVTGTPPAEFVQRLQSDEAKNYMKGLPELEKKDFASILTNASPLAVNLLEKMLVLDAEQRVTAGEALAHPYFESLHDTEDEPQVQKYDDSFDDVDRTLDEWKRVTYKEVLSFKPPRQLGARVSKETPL
Chain of Dual specificity protein kinase CLK4 (Homo sapiens) (Q9HAZ1 whole entry, looked up): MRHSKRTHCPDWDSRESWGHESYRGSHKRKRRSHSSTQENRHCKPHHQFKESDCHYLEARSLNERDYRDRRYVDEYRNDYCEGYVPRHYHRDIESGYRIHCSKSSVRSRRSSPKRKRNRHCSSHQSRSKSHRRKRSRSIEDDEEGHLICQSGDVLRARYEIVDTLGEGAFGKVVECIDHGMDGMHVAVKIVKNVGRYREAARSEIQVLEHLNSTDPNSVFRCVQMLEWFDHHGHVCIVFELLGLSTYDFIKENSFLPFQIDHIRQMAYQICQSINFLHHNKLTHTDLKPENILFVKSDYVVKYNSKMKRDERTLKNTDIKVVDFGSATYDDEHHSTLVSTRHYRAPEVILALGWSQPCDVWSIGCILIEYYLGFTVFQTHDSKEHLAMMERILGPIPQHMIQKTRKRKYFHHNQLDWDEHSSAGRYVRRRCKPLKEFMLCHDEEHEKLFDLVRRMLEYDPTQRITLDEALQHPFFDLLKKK
Chain of Insulin receptor-related protein (Homo sapiens) (P14616 27-742 limits assumed): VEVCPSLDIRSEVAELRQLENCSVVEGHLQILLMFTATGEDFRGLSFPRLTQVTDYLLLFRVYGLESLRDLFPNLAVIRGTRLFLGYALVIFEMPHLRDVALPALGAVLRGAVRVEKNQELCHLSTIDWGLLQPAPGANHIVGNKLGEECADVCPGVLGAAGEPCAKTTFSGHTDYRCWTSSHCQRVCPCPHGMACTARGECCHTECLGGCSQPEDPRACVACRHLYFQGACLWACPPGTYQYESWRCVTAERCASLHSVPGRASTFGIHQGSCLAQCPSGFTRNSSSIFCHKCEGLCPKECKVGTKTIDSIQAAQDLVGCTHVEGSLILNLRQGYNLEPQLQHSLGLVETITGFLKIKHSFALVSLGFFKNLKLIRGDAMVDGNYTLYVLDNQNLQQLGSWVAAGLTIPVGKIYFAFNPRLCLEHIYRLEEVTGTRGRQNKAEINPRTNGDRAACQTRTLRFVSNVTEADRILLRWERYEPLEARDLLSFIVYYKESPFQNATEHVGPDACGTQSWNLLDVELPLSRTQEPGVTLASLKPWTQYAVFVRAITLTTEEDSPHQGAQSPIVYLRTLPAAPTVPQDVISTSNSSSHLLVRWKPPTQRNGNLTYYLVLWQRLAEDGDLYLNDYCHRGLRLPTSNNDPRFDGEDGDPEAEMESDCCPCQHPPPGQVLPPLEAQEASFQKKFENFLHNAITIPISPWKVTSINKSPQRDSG
Chain of Insulin receptor-related protein (Homo sapiens) (P14616 747-1297 limits assumed): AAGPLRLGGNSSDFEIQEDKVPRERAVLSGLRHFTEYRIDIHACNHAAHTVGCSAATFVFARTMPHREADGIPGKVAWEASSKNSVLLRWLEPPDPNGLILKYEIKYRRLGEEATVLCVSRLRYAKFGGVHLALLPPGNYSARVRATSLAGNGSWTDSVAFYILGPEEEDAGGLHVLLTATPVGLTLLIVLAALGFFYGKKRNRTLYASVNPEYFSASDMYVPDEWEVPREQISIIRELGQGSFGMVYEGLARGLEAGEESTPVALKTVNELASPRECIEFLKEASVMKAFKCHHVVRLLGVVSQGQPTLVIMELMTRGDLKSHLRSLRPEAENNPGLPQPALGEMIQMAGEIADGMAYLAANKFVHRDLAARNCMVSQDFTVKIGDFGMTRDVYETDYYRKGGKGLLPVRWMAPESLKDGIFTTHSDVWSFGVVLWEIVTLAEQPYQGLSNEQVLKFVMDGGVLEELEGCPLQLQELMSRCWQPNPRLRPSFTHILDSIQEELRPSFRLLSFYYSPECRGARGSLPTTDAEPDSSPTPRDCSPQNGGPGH
Chain of Phosphatidylinositol 4,5-bisphosphate 3-kinase catalytic subunit alpha isoform (Homo sapiens), P42336 [I800L] (P42336 whole entry I800L, canonical isoform): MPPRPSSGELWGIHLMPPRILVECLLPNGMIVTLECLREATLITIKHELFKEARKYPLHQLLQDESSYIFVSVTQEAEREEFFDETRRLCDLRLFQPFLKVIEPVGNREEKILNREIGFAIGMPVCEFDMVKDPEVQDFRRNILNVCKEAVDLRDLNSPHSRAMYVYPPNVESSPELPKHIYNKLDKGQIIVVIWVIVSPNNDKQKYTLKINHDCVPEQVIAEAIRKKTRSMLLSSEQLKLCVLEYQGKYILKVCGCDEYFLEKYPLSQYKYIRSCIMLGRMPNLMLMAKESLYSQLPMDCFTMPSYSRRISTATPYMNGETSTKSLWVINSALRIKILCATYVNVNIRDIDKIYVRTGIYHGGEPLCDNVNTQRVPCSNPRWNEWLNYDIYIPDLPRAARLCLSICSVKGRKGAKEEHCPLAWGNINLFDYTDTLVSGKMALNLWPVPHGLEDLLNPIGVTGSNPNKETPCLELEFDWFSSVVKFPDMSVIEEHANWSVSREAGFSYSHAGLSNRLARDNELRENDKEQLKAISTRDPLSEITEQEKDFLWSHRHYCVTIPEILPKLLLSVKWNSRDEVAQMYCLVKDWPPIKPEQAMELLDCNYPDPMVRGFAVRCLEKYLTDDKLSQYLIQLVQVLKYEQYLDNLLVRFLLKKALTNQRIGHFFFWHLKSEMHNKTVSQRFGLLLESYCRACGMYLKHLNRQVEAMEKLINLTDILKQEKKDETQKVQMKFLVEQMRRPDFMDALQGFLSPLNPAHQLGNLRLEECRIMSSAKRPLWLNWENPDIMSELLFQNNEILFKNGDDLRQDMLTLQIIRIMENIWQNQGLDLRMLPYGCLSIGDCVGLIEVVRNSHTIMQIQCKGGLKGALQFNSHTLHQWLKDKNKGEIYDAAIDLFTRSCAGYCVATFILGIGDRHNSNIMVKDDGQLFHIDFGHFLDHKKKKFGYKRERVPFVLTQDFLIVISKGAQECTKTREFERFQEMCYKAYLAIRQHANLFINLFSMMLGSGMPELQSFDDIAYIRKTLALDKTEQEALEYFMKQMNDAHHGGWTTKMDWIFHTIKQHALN
Chain of Ankyrin repeat and protein kinase domain-containing protein 1 (Homo sapiens) (Q8NFD2 whole entry, the tested form may be a part): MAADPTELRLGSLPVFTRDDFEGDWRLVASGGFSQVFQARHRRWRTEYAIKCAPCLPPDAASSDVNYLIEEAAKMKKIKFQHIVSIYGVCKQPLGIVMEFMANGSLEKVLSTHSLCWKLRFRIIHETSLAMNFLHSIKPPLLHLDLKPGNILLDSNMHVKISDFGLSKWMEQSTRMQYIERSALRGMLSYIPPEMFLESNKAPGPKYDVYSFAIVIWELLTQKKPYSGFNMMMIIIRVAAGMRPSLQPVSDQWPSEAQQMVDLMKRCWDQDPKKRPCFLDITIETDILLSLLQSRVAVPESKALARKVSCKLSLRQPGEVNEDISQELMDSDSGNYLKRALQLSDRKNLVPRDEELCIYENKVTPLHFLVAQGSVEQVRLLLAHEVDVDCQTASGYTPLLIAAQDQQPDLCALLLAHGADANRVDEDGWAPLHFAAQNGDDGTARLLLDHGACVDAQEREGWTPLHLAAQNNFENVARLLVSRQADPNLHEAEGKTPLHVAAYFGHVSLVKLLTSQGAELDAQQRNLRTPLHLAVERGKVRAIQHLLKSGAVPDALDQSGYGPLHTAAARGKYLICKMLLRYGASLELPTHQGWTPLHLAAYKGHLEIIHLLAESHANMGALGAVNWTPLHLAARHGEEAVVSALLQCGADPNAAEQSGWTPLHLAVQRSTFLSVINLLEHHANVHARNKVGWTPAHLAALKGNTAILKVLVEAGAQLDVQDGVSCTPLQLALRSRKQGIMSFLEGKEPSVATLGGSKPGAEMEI
Chain of Dual specificity mitogen-activated protein kinase kinase 3 (Homo sapiens) (P46734 whole entry): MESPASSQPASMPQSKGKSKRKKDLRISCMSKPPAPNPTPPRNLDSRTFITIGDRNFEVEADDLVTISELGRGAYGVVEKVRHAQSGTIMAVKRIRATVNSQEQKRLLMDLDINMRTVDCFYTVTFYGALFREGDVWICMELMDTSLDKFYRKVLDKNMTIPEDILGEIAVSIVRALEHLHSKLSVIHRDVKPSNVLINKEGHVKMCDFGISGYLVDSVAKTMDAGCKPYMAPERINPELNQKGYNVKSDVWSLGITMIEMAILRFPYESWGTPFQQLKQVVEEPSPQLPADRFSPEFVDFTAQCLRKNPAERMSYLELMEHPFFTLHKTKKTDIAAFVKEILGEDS

CN(C)C(=O)c1ccc(N2CCCN(c3ccnc4sc(C(N)=O)c(N)c34)CC2)cc1
Activity [1]: 94% and 90%
Activity [2]: 100% and 91%
Activity [3]: 90% and 100%
Activity [4]: 92% and 87%
Activity [5]: 84% and 94%
Activity [6]: 59% and 66%
Activity [7]: 100%
Activity [8]: 100%
Activity [9]: 100% and 80%
Activity [10]: 95% and 75%
Activity [11]: 99% and 89%
Activity [12]: 91% and 66%
Activity [13]: 96% and 75%
Activity [14]: 100%
Activity [15]: 68%
Activity ([15]; INHIBITOR): 47%
Activity [16]: 100% and 94%
Activity [17]: 100% and 80%
Activity [18]: 98%
Activity [19]: 98% and 100%
Activity [20]: 100% and 93%
Activity [21]: 96% and 100%
Activity [22]: 97% and 74%
Activity [23]: 93% and 86%
Activity [24]: 100% and 86%
Activity [25]: 94% and 92%
Activity [26]: 100% and 83%
Activity [27]: 56% and 54%
Activity [28]: 83% and 80%
Activity [29]: 96% and 72%
Activity (CWR22R): Active
Activity (4T1): Active
